Measurements from ChEMBL document CHEMBL2034838, “Quinazolino-benzothiazoles: fused pharmacophores as anticonvulsant agents” (Eur J Med Chem, 2012).

Assays:
Mus musculus [1] = assay: Anticonvulsant activity in Swiss albino mouse assessed as decrease in time of subcutaneous PTZ-induced clonic hind leg extension administered as ip at equimolar dose of diazepam 30 mins before subcutaneous PTZ challenge measured after 0.5 hrs (reference value: 76.80 +/- 2.41 sec); assay type: functional, Hindlimb
Mus musculus [2] = assay: Anticonvulsant activity in Swiss albino mouse assessed as decrease in time of maximum electroshock-induced tonic hind leg extension administered as ip at equimolar dose of phenytoin 30 mins before maximum electroshock seizure stimulation measured after 0.5 hrs (reference value: 15.40 +/- 0.50 sec); assay type: functional, Hindlimb
Mus musculus [3] = assay: Anticonvulsant activity in ip dosed Swiss albino mouse assessed as decrease in time of subcutaneous PTZ-induced clonic hind leg extension administered 30 mins before subcutaneous PTZ challenge measured after 0.5 hrs (reference value: 76.80 +/- 2.41 sec); assay type: functional, Hindlimb
Mus musculus [4] = organism: Mus musculus; assay: Neurotoxicity in Swiss albino mouse by rotarod test; assay type: toxicity, organism-based; details: in vivo
Mus musculus [5] = assay: Hepatotoxicity in Swiss albino mouse assessed as change in liver SGOT level at 25 mg/kg/day for 15 days; assay type: toxicity, organism-based; details: in vivo, 360 h
Mus musculus [6] = assay: Hepatotoxicity in Swiss albino mouse assessed as change in liver SGPT level at 25 mg/kg/day for 15 days; assay type: toxicity, organism-based; details: in vivo, 360 h
Mus musculus [7] = assay: Hepatotoxicity in Swiss albino mouse assessed as change in liver total protein level assessed per 100 ml at 25 mg/kg/day for 15 days; assay type: toxicity, organism-based; details: in vivo, 360 h
Mus musculus [8] = assay: Hepatotoxicity in Swiss albino mouse assessed as change in liver alkaline phosphatase level at 25 mg/kg/day for 15 days; assay type: toxicity, organism-based; details: in vivo, 360 h

## CCc1nc2ccc(Br)cc2c(=O)n1-c1nc2c(C)cc(C)cc2s1
Mus musculus [1]
  Time: 91.6 s
Mus musculus [2]
  Time: 11.8 s

## CN1C(=O)CN=C(c2ccccc2)c2cc(Cl)ccc21 [DIAZEPAM]
Mus musculus [3]
  Time: 111.6 s
Mus musculus [4]
  Activity: Non-toxic

## CCc1nc2ccc(Br)cc2c(=O)n1-c1nc2ccccc2s1
Mus musculus [5]
  Activity: Non-toxic
Mus musculus [6]
  Activity: Non-toxic
Mus musculus [1]
  Time: 91.6 s
Mus musculus [7]
  Activity: 1.82 g
Mus musculus [8]
  Activity: Non-toxic
Mus musculus [4]
  Activity: Non-toxic
Mus musculus [2]
  Time: 7.4 s

## CCc1nc2ccc(Br)cc2c(=O)n1-c1nc2ccc([N+](=O)[O-])cc2s1
Mus musculus [1]
  Time: 91 s
Mus musculus [2]
  Time: 12 s

## CCc1nc2ccc(Br)cc2c(=O)n1-c1nc2cc(C)ccc2s1
Mus musculus [1]
  Time: 93.2 s
Mus musculus [2]
  Time: 11.2 s

## CCc1nc2ccc(Br)cc2c(=O)n1-c1nc2c(OC)cccc2s1
Mus musculus [5]
  Activity: Non-toxic
Mus musculus [6]
  Activity: Non-toxic
Mus musculus [1]
  Time: 98.12 s
Mus musculus [7]
  Activity: 1.82 g
Mus musculus [8]
  Activity: Non-toxic
Mus musculus [4]
  Activity: Non-toxic
Mus musculus [2]
  Time: 10.2 s

## CCOc1cccc2sc(-n3c(CC)nc4ccc(Br)cc4c3=O)nc12
Mus musculus [5]
  Activity: Non-toxic
Mus musculus [6]
  Activity: Non-toxic
Mus musculus [1]
  Time: 98 s
Mus musculus [7]
  Activity: 1.82 g
Mus musculus [8]
  Activity: Non-toxic
Mus musculus [4]
  Activity: Non-toxic
Mus musculus [2]
  Time: 10.1 s

## CCc1nc2ccc(Br)cc2c(=O)n1-c1nc2cc(Cl)ccc2s1
Mus musculus [5]
  Activity: Non-toxic
Mus musculus [6]
  Activity: Non-toxic
Mus musculus [1]
  Time: 93 s
Mus musculus [7]
  Activity: 1.75 g
Mus musculus [8]
  Activity: Non-toxic
Mus musculus [4]
  Activity: Non-toxic
Mus musculus [2]
  Time: 8.6 s

## CCc1nc2ccc(Br)cc2c(=O)n1-c1nc2cc(OC)ccc2s1
Mus musculus [1]
  Time: 89.8 s
Mus musculus [2]
  Time: 10.6 s

## CCc1nc2ccc(Br)cc2c(=O)n1-c1nc2ccc(OC)cc2s1
Mus musculus [5]
  Activity: Non-toxic
Mus musculus [6]
  Activity: Non-toxic
Mus musculus [1]
  Time: 99.45 s
Mus musculus [7]
  Activity: 1.78 g
Mus musculus [8]
  Activity: Non-toxic
Mus musculus [4]
  Activity: Non-toxic
Mus musculus [2]
  Time: 9.7 s

## CCc1nc2ccc(Br)cc2c(=O)n1-c1nc2c(C)cccc2s1
Mus musculus [1]
  Time: 95.23 s
Mus musculus [2]
  Time: 10.5 s
